The target of test [1] is T1, HPK1 (Homo sapiens, UniProt Q92918).
T1 sequence (Q92918 1-346): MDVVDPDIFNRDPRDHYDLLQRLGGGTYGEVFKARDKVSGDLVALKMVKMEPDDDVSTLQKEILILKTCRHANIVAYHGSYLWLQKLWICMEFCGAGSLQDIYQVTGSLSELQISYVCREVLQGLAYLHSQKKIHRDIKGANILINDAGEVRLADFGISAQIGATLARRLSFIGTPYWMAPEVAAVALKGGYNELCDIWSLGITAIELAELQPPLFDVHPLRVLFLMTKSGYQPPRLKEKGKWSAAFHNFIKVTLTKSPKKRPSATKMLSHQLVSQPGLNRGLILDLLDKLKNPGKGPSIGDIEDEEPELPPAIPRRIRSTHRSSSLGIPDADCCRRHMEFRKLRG
The test can be described thus: HPK1 kinase activity assay (ADP-Glo). As to conditions: HPK1 Kinase activity IC50, ADP-Glo; 1 nM HPK1, 10 μM ATP, 0.1 μg/μL MBP. (In general: ADP-Glo turns the ADP formed in a reaction into a luminescent signal.)
Procedure: Preparation of buffer: Ix reaction buffer (40 mM Tris-HCl, 20 mM MgCl2, 0.01% Brij35, 50 μM DTT, 0.1 mg/ml BSA) was prepared using sterile water, which was prepared and used on the day of the experiment.
(§1) Preparation of 1000× drug stock plate: a 1000× compound stock plate was prepared. […] The compound stock plate was sealed with a sealing film and stored in a −20° C. refrigerator for later use.
Compound preparation and dosing: the 1000× drug stock plate was taken and melted at room temperature in the dark. Then 5× drug intermediate plate was prepared using reaction buffer and mixed well. 2 μL was transferred from the 5× drug intermediate plate into a 384-well plate, and negative control well and positive control well (in which 2 μL reaction buffer containing 0.5% DMSO was added) were set. Each point was repeated twice.
Preparation and incubation of reaction mixture: HPK1 protein was diluted to a 2.5× working solution with reaction buffer. 4 μL 2.5×HPK1 protein was added to each well containing test compound and positive control well, and 4 μL of reaction buffer without HPK1 protein was added to the negative control well. The obtained mixture was centrifuged at 1000 rpm for 1 min and then incubated in a 20° C. incubator for 15 min. A 2.5× mixed working solution of MBP protein and ATP was prepared with reaction buffer at concentrations of 0.5 μg/μL and 50 μM, respectively. 4 μL of the mixed working solution of MBP and ATP was added to each well, centrifuged at 1000 rpm for 1 min, and then incubated in a 20° C. incubator for 90 min.
ADP-Glo detection and reading plate: 10 μl ADP-Glo was added to each well of the test plate. The resulting mixture was centrifuged at 1000 rpm for 1 min and incubated in a 20° C. incubator for 60 min. Then 10 μL of the final incubation solution was transferred from the test plate to a new 384-well plate. 10 μL of kinase detection reagent was added to each well, centrifuged at 400 g for 1 min, and incubated in a 20° C. incubator for 60 min Chemiluminescent signals were read by a microplate reader.

Test [2] addresses HPK1 (Homo sapiens, UniProt Q92918). The test is described as follows: SLP76 phosphorylation assay (intracellular HPK1 inhibitory activity, p-SLP76 S376 ELISA in Jurkat cells). As to conditions: p-SLP76 IC50, Jurkat, Clone E6-1 cells; 1 h compound pre-incubation; anti-CD3 beads stimulation 20 min; Phospho-SLP-76 (Ser376) ELISA. Background: An ELISA detects its analyte on a solid surface through an enzyme-linked reagent.
Target sequence in this assay (Q92918 whole entry): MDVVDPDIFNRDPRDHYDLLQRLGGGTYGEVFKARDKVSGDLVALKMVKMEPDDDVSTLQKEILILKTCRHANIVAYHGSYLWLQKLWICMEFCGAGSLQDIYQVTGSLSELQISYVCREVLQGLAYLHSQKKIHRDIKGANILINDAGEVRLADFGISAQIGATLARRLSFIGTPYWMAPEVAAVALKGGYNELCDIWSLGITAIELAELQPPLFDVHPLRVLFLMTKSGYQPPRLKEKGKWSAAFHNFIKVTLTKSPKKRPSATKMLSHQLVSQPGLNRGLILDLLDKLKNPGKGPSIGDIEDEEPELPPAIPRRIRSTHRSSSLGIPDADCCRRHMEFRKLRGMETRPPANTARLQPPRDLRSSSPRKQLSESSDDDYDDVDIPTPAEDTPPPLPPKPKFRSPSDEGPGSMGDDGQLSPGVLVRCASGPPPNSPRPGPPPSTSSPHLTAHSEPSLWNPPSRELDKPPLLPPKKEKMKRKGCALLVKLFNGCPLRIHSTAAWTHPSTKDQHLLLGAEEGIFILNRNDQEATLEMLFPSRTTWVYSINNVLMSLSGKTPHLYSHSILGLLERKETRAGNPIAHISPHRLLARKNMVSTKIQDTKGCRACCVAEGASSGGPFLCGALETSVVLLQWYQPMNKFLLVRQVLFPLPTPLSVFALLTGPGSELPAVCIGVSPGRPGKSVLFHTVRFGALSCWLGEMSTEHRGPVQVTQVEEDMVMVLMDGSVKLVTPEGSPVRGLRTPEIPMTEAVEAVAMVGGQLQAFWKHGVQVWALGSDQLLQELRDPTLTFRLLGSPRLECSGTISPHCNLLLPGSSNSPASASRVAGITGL
Procedure: SLP76 Phosphorylation Assay
Intracellular HPK1 inhibitory activity was tested by the detection of SLP76 phosphorylation at S376.
as §1
Preparation of Beads wash buffer: 0.1 mL FBS and 0.4 mL 0.5 M EDTA (with a final concentration of 2 mM) were added to 100 mL PBS and stored in a 4° C. refrigerator for later use.
100× Protease Inhibitor Cocktail in 1/20 total volume was added and stored on wet ice for later use. The buffer was ready to use.
Cell inoculation and dosing: the 1000× drug stock plate was taken and melted at room temperature in the dark. […] Jurkat cells in the logarithmic growth phase were selected and collected. […] The cells were inoculated into a 96-well plate (the volume was 90 μL per well), and a blank control well (without cells inoculation, and in which 110 μL of medium was added) was set. 10 μL of a drug-containing culture medium (10×) was transferred from the 10× drug intermediate plate into the 96-well cell plate (with a final concentration of 0.1% DMSO), and set a DMSO control group (in which 0.1% DMSO was added to the treated cells), a stimulated control group (in which 10 μL of culture medium was added to treat cells) and an unstimulated group (in which 10 μL of culture medium was added to treat cells). The wells were duplicated, gently patted, mixed, and then placed into a 5% CO2 incubator at 37° C. for 1 h.
Anti-CD3 beads stimulation: Dynabeads anti-human CD3 was taken, shaken, and mixed for 60 s. The required volume of beads was pipetted, and an equal volume or at least 1 mL of washing solution was added to wash once. Fresh complete medium was then added to resuspend and adjust the density of the beads to 4×10^7/mL, and the beads were placed on ice for later use. At the end of drug pre-incubation, the cell culture plate was taken out. 10 μL Dynabeads anti-human CD3 was added to each well to treat the cells, and 10 μL the culture medium was added to the unstimulated group. The cell culture plate was shaken to mix well at 2500 rpm for 10 s, and then placed into a 5% CO2 incubator at 37° C. and continued to culture for 20 min.
Detection of p-SLP76 protein level: PathScan Phospho-SLP-76 (Ser376) Sandwich ELISA Kit was applied to detect p-SLP76 protein level. At the end of the Anti-CD3 beads stimulation, the cell culture plate was removed from the incubator. […] After lysis, the cell culture plate was centrifuged at 4° C., 400×g for 5 min. 25 μL of sample and 75 μL of sample diluent were added to each well, and the plate was placed in a 5% CO2 incubator at 37° C. for 2 h. The subsequent detection steps were carried out following the kit instructions, and the absorbance (OD value) of each well was read at 450 nm by a microplate reader.

Results on 16 compounds are retold here after US20250084078A1, “FUSED RING-SUBSTITUTED SIX-MEMBERED HETEROCYCLIC COMPOUND, AND PREPARATION METHOD THEREFOR AND USE THEREOF” (GENFLEFT THERAPEUTICS (SHANGHAI) INC., priority 2022, published 2025).

Structures are written as SMILES.

For orientation: IC50 means the concentration needed to halve the response being measured. The low end stands for inhibition by little substance, the high end for a need for much substance. For the compound `O=C(N1CCc2cc(-c3cnc4[nH]cc(Cl)c4n3)cc([C@@H]3COCCN3)c2C1)N1C2CCC1COC2` [Compound Z571, (3-oxa-8-azabicyclo[3.2.1]octan-8-yl)(6-(7-chloro-5H-pyrrolo[2,3-b]pyrazin-2-yl)-8-((R)-morpholin-3-yl)-3,4-dihydroisoquinolin-2(1H)-yl)methanone], the values for the half-inhibitory concentration (IC50) in test [1] and in test [2] were 0.49 nM and 108 nM, respectively.
As to `Cc1c[nH]c2ncc(-c3cc4c(c([C@@H]5COCCN5)c3)CN(C(=O)N3CC5CCC(C3)O5)CC4)nc12` [Compound Z572, (8-oxa-3-50 azabicyclo[3.2.1]octan-3-yl)(6-(7-methyl-5H-pyrrolo[2,3-b]pyrazin-2-yl)-8-((R)-morpholin-3-yl)-3,4-dihydroisoquinolin-2(1H)-yl)methanone], the half-maximal inhibitory concentration (IC50) in test [1] amounted to 0.16 nM; in test [2] it was 28 nM.
In the case of `Cc1c[nH]c2ncc(-c3cc4c(c([C@@H]5COCCN5)c3)CN(C(=O)N3CCOC[C@@H]3C)CC4)nc12` [Compound Z574, (6-(7-methyl-5H-pyrrolo[2,3-b]pyrazin-2-yl)-8-((R)-morpholin-3-yl)-3,4-dihydroisoquinolin-2(1H)-yl)((S)-3-methylmorpholine)methanone], the IC50 in test [1] is 0.41 nM; in test [2], 83.9 nM.
Consider `Cc1c[nH]c2ncc(-c3cc4c(c([C@@H]5COCCN5)c3)CN(C(=O)N3CC(O)CC3(C)C)CC4)cc12` (some centres unmarked) [Compound Z577], for which the 50% inhibitory concentration (IC50) in test [1] is 0.25 nM; in test [2], 78.1 nM.
In the same order, the values of `Cc1c[nH]c2ncc(-c3cc4c(c([C@@H]5COCCN5)c3)CN(C(=O)N3CCOC[C@@H]3C)CC4)cc12` [Compound Z581, (6-(3-methyl-1H-pyrrolo[2,3-b]pyridin-5-yl)-8-((R)-morpholin-3-yl)-3,4-dihydroisoquinolin-2(1H)-yl)((S)-3-methylmorpholino)methanone] are 0.24 nM and 86.7 nM.
The like results for `Cc1c[nH]c2ncc(-c3cc4c(c([C@@H]5COCCN5)c3)CN(C(=O)N3CCC(F)CC3)CC4)cc12` [Compound Z585, (R)-(4-fluoropiperidin-1-yl)(6-(3-methyl-1H-pyrrolo[2,3-b]pyridin-5-yl)-8-(morpholin-3-yl)-3,4-dihydroisoquinolin-2(1H)-yl)methanone] were, in that order, 0.25 nM and 83.2 nM.
The like results for `Cc1c[nH]c2ncc(-c3cc4c(c([C@@H]5COCCN5)c3)CN(C(=O)N3C[C@@H](C)O[C@H](C)C3)CC4)nc12` [Compound Z600] were, in that order, 0.08 nM and 103 nM.
As for `Cc1c[nH]c2ncc(-c3cc4c(c([C@@H]5COCCN5)c3)CN(C(=O)N3CC[C@H](F)C3)CC4)nc12` [Compound Z603, ((S)-3-fluoropyrrolidin-1-yl)(6-(7-methyl-5H-pyrrolo[2,3-b]pyrazin-2-yl)-8-((R)-morpholin-3-yl)-3,4-dihydroisoquinolin-2(1H)-yl)methanone], the IC50 in test [1] was determined as 0.21 nM; in test [2], 67.4 nM.
For the compound `O=C(N1CCc2cc(-c3cnc4[nH]cc(Cl)c4c3)cc([C@@H]3COCCN3)c2C1)N1CC[C@H](F)C1` [Compound Z604, (6-(3-chloro-1H-pyrrolo[2,3-b]pyridin-5-yl)-8-((R)-morpholin-3-yl)-3,4-dihydroisoquinolin-2(1H)-yl)((S)-3-fluoropyrrolidin-1-yl)methanone], the IC50 in test [1] came to 0.36 nM; in test [2], 108 nM.
Regarding `O=C(N1CCc2cc(-c3cnc4[nH]cc(C(F)(F)F)c4n3)cc([C@@H]3COCCN3)c2C1)N1CC2CCC(C1)O2` [Compound Z606, (8-oxa-3-azabicyclo[3.2.1]octan-3-yl)(8-((R)-morpholin-3-yl)6-(7-(trifluoromethyl)-5H-pyrrolo[2,3-b]pyrazin-2-yl)-3,4-dihydroisoquinolin-2(1H)-yl)methanone], the results for the half-maximal inhibitory concentration (IC50) in test [1] and in test [2] were 0.25 nM and 62.9 nM, respectively.
With `Cc1c[nH]c2ncc(-c3cc4c(c([C@@H]5COCCN5)c3)CN(C(=O)N3C[C@H]5C[C@@H]3CO5)CC4)nc12` [Compound Z607, ((1R,4R)-2-oxa-5-azabicyclo[2.2.1]heptan-5-yl)(6-(7-methyl-5H-pyrrolo[2,3-b]pyrazin-2-yl)-8-((R)-morpholin-3-yl)-3,4-dihydroisoquinolin-2(1H)-yl)methanone], the concentration for half-maximal inhibition (IC50) is 0.27 nM in test [1] and 76.1 nM in test [2].
The like results for `O=C(N1CCc2cc(-c3cnc4[nH]cc(Cl)c4c3)cc([C@@H]3COCCN3)c2C1)N1C[C@H]2C[C@@H]1CO2` [Compound Z608, ((1R,4R)-2-oxa-5-azabicyclo[2.2.1]heptan-5-yl)(6-(3-chloro-1H-pyrrolo[2,3-b]pyridin-5-yl)-8-((R)-morpholin-3-yl)-3,4-dihydroisoquinolin-2(1H)-yl)methanone] were, in that order, 0.27 nM and 67.1 nM.
In the case of `O=C(N1CCc2cc(-c3cnc4[nH]cc(C(F)(F)F)c4c3)cc([C@@H]3COCCN3)c2C1)N1C2CCC1COC2` [Compound Z611], the half-inhibitory concentration (IC50) in test [1] was determined as 0.37 nM; in test [2], 98.9 nM.
In the case of `Cc1c[nH]c2ncc(-c3cc4c(c([C@@H]5COCCN5)c3)CN(C(=O)C3(C)CCOCC3)CC4)cc12` [Compound Z615, (R)-(6-(3-methyl-1H-pyrrolo[2,3-b]pyridin-5-yl)-8-(morpholin-3-yl)-3,4-dihydroisoquinolin-2(1H)-yl)(4-methyltetrahydro-2H-pyran-4-yl)methanone], the values for the concentration for half-maximal inhibition (IC50) in test [1] and in test [2] were 0.76 nM and 207 nM, respectively.
In the same order, the values of `CC1(C)CC(O)CN1C(=O)N1CCc2cc(-c3cnc4[nH]cc(Cl)c4c3)cc([C@@H]3COCCN3)c2C1` (stereo partly drawn) [Compound Z617, (6-(3-chloro-1H-pyrrolo[2,3-b]pyridin-5-yl)-8-((R)-morpholin-3-yl)-3,4-dihydroisoquinolin-2(1H)-yl)(4-hydroxy-2,2-dimethylpyrrolidin-1-yl)methanone] are 0.36 nM and 86.2 nM.
In the same order, the values of `Cc1c[nH]c2ncc(-c3cc4c(c([C@@H]5COCCN5)c3)CN(C(=O)N3CCC(F)(F)CC3)CC4)nc12` [Compound Z624, (R)-(4,4-difluoropiperidin-1-yl)(6-(7-methyl-5H-pyrrolo[2,3-b]pyrazin-2-yl)-8-(morpholin-3-yl)-3,4-dihydroisoquinolin-2(1H)-yl)methanone] are 0.36 nM and 76 nM.
